Source: PubChem BioAssay AID1919005 (Molecular Pharmacology Branch, DTP, NCI, 2023)
pIC50: −log10 of the molar value. Where “and” joins values, the source holds several entries; their conditions need not be identical. Equal entries are not always repeated.

System: 855422-203-R-J1-PDC complex spheroid growth
Assay: Anticancer human tumor 855422-203-R-J1-PDC patient-derived bladder carcinoma cell line growth inhibition [AhR]
Conditions: for viability, T/C: stronger effect = lower value
Procedure, shortened: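 Agents were dosed in half-log steps down from roughly clinical Cmax, or from 10 microM where Cmax was unknown, alone and with AhR antagonists. Read-out: percent test/control growth of tumor spheroids containing HUVEC and MSC stromal cells.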

[1] = curve of first compound, second compound 0.1 µM
[2] = curve of first compound, second compound 0.316 µM
[3] = curve of first compound, second compound 1 µM
[4] = curve of first compound, second compound 3.16 µM
[5] = curve of first compound, second compound 10 µM
[6] = second compound 0.1 µM, first compound 0.0316 µM
[7] = second compound 0.1 µM, first compound 0.1 µM
[8] = second compound 0.1 µM, first compound 0.316 µM
[9] = second compound 0.1 µM, first compound 1 µM
[10] = second compound 0.1 µM, first compound 3.16 µM
[11] = second compound 0.1 µM, first compound 10 µM
[12] = second compound 0.316 µM, first compound 0.0316 µM
[13] = second compound 0.316 µM, first compound 0.1 µM
[14] = second compound 0.316 µM, first compound 0.316 µM
[15] = second compound 0.316 µM, first compound 1 µM
[16] = second compound 0.316 µM, first compound 3.16 µM
[17] = second compound 0.316 µM, first compound 10 µM
[18] = second compound 1 µM, first compound 0.0316 µM
[19] = second compound 1 µM, first compound 0.1 µM
[20] = second compound 1 µM, first compound 0.316 µM
[21] = second compound 1 µM, first compound 1 µM
[22] = second compound 1 µM, first compound 3.16 µM
[23] = second compound 1 µM, first compound 10 µM
[24] = second compound 3.16 µM, first compound 0.0316 µM
[25] = second compound 3.16 µM, first compound 0.1 µM
[26] = second compound 3.16 µM, first compound 0.316 µM
[27] = second compound 3.16 µM, first compound 1 µM
[28] = second compound 3.16 µM, first compound 3.16 µM
[29] = second compound 3.16 µM, first compound 10 µM
[30] = second compound 10 µM, first compound 0.0316 µM
[31] = second compound 10 µM, first compound 0.1 µM
[32] = second compound 10 µM, first compound 0.316 µM
[33] = second compound 10 µM, first compound 1 µM
[34] = second compound 10 µM, first compound 3.16 µM
[35] = second compound 10 µM, first compound 10 µM
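Note: spheroids exposed to agents for seven days before readout.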
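Throughout, for viability, T/C: percent of DMSO vehicle control luminescence viability.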

**Q.** Which results are given for `O=C(C=Cn1cnc(-c2cc(C(F)(F)F)cc(C(F)(F)F)c2)n1)NNc1cnccn1` + Cc1ccccc1N=Nc1ccc(NC(=O)c2ccnn2C)c(C)c1?
**A.** pIC50 [1]: < 5.52; pIC50 [2]: < 5.52; pIC50 [3]: < 5.52; pIC50 [4]: 6.15; pIC50 [5]: 6.14; viability, T/C (second compound 0.1 µM, first compound 0.00949 µM): 108%; viability, T/C (second compound 0.1 µM, first compound 0.03 µM): 113%; viability, T/C (second compound 0.1 µM, first compound 0.0949 µM): 143%; viability, T/C (second compound 0.1 µM, first compound 0.3 µM): 93.1%; viability, T/C (second compound 0.1 µM, first compound 0.949 µM): 53.9%; viability, T/C (second compound 0.1 µM, first compound 3 µM): 50.1%; viability, T/C (second compound 0.316 µM, first compound 0.00949 µM): 109%; viability, T/C (second compound 0.316 µM, first compound 0.03 µM): 118%; viability, T/C (second compound 0.316 µM, first compound 0.0949 µM): 151%; viability, T/C (second compound 0.316 µM, first compound 0.3 µM): 83.7%; viability, T/C (second compound 0.316 µM, first compound 0.949 µM): 57.6%; viability, T/C (second compound 0.316 µM, first compound 3 µM): 48%; viability, T/C (second compound 1 µM, first compound 0.00949 µM): 109%; viability, T/C (second compound 1 µM, first compound 0.03 µM): 136%; viability, T/C (second compound 1 µM, first compound 0.0949 µM): 179%; viability, T/C (second compound 1 µM, first compound 0.3 µM): 78.5%; viability, T/C (second compound 1 µM, first compound 0.949 µM): 54.2%; viability, T/C (second compound 1 µM, first compound 3 µM): 48%; viability, T/C (second compound 3.16 µM, first compound 0.00949 µM): 111%; viability, T/C (second compound 3.16 µM, first compound 0.03 µM): 107%; viability, T/C (second compound 3.16 µM, first compound 0.0949 µM): 154%; viability, T/C (second compound 3.16 µM, first compound 0.3 µM): 69.8%; viability, T/C (second compound 3.16 µM, first compound 0.949 µM): 48.5%; viability, T/C (second compound 3.16 µM, first compound 3 µM): 37.8%; viability, T/C (second compound 10 µM, first compound 0.00949 µM): 85.8%; viability, T/C (second compound 10 µM, first compound 0.03 µM): 101%; viability, T/C (second compound 10 µM, first compound 0.0949 µM): 112%; viability, T/C (second compound 10 µM, first compound 0.3 µM): 58.2%; viability, T/C (second compound 10 µM, first compound 0.949 µM): 49.8%; viability, T/C (second compound 10 µM, first compound 3 µM): 45.4%

**Q.** For `NS(=O)(=O)OCC1CC(n2ccc3c(NC4CCc5ccccc54)ncnc32)CC1O` (configuration not stated), which viability, T/C (compound 0.0316 µM) is on record?
**A.** 99.2% and 99.8% and 104%

**Q.** And the viability, T/C (compound 0.1 µM)?
**A.** 113% and 118% and 105%

**Q.** And the viability, T/C (compound 0.316 µM)?
**A.** 114% and 130% and 106%

**Q.** What about the viability, T/C (compound 1 µM) of the same compound?
**A.** 91.4% and 97.8% and 66.8%

**Q.** And the viability, T/C (compound 3.16 µM)?
**A.** 35.2% and 53.6% and 26.8%

**Q.** What about the viability, T/C (compound 10 µM) of the same compound?
**A.** 9.55% and 14.4% and 8.49%

**Q.** And the pIC50 (curve of compound)?
**A.** 5.63 and 5.47 and 5.79

**Q.** `COc1cc(C2c3cc4c(cc3C(OC3OC5COC(C)OC5C(O)C3O)C3COC(=O)C23)OCO4)cc(OC)c1O` (configuration not stated) + CC(CO)NC(=O)c1cc(-c2ccc(Cl)cc2)nn(-c2cnn(C)c2)c1=O was tested. Which pIC50 [1] did it give?
**A.** 6.26

**Q.** And the pIC50 [2]?
**A.** 6.24

**Q.** What about the pIC50 [3] of the same compound?
**A.** 6.30

**Q.** And the pIC50 [4]?
**A.** 6.49

**Q.** What about the pIC50 [5] of the same compound?
**A.** 6.60

**Q.** And the viability, T/C [6]?
**A.** 104%

**Q.** What about the viability, T/C [7] of the same compound?
**A.** 93.5%

**Q.** And the viability, T/C [8]?
**A.** 72.9%

**Q.** And the viability, T/C [9]?
**A.** 25.6%

**Q.** What about the viability, T/C [10] of the same compound?
**A.** 12.7%

**Q.** And the viability, T/C [11]?
**A.** 6.98%

**Q.** What about the viability, T/C [12] of the same compound?
**A.** 94.2%

**Q.** And the viability, T/C [13]?
**A.** 96%

**Q.** And the viability, T/C [14]?
**A.** 75.6%

**Q.** And the viability, T/C [15]?
**A.** 25.4%

**Q.** What about the viability, T/C [16] of the same compound?
**A.** 12.1%

**Q.** What about the viability, T/C [17] of the same compound?
**A.** 5.1%

**Q.** What about the viability, T/C [18] of the same compound?
**A.** 98.5%

**Q.** And the viability, T/C [19]?
**A.** 103%

**Q.** What about the viability, T/C [20] of the same compound?
**A.** 64.3%

**Q.** What about the viability, T/C [21] of the same compound?
**A.** 25.6%

**Q.** What about the viability, T/C [22] of the same compound?
**A.** 11.1%

**Q.** And the viability, T/C [23]?
**A.** 4.66%

**Q.** What about the viability, T/C [24] of the same compound?
**A.** 89.5%

**Q.** And the viability, T/C [25]?
**A.** 91.8%

**Q.** And the viability, T/C [26]?
**A.** 48.2%

**Q.** And the viability, T/C [27]?
**A.** 19.4%

**Q.** What about the viability, T/C [28] of the same compound?
**A.** 9.59%

**Q.** And the viability, T/C [29]?
**A.** 3.77%

**Q.** And the viability, T/C [30]?
**A.** 96.2%

**Q.** And the viability, T/C [31]?
**A.** 82.3%

**Q.** And the viability, T/C [32]?
**A.** 37.1%

**Q.** And the viability, T/C [33]?
**A.** 24.3%

**Q.** And the viability, T/C [34]?
**A.** 8.67%

**Q.** And the viability, T/C [35]?
**A.** 4.32%

**Q.** What does the source list for `O=C(c1cc(Cc2n[nH]c(=O)c3ccccc23)ccc1F)N1CCN(C(=O)C2CC2)CC1` + CC(CO)NC(=O)c1cc(-c2ccc(Cl)cc2)nn(-c2cnn(C)c2)c1=O?
**A.** pIC50 [1]: < 5.00; pIC50 [2]: < 5.00; pIC50 [3]: < 5.00; pIC50 [4]: < 5.00; pIC50 [5]: < 5.00; viability, T/C [6]: 105%; viability, T/C [7]: 107%; viability, T/C [8]: 117%; viability, T/C [9]: 110%; viability, T/C [10]: 98.8%; viability, T/C [11]: 95.2%; viability, T/C [12]: 118%; viability, T/C [13]: 107%; viability, T/C [14]: 110%; viability, T/C [15]: 106%; viability, T/C [16]: 105%; viability, T/C [17]: 97.9%; viability, T/C [18]: 120%; viability, T/C [19]: 115%; viability, T/C [20]: 115%; viability, T/C [21]: 108%; viability, T/C [22]: 113%; viability, T/C [23]: 101%; viability, T/C [24]: 107%; viability, T/C [25]: 112%; viability, T/C [26]: 105%; viability, T/C [27]: 105%; viability, T/C [28]: 96.9%; viability, T/C [29]: 106%; viability, T/C [30]: 109%; viability, T/C [31]: 115%; viability, T/C [32]: 98%; viability, T/C [33]: 97.1%; viability, T/C [34]: 105%; viability, T/C [35]: 102%

**Q.** Which results are given for `O=C(C=Cc1cccc(S(=O)(=O)Nc2ccccc2)c1)NO` + Cc1cncc(-c2nc(NCCc3c[nH]c4ccccc34)c3ncn(C(C)C)c3n2)c1?
**A.** pIC50 [1]: 5.83; pIC50 [2]: 5.86; pIC50 [3]: 5.94; pIC50 [4]: 6.31; pIC50 [5]: > 7.50; viability, T/C [6]: 81.7%; viability, T/C [7]: 86.4%; viability, T/C [8]: 85.2%; viability, T/C [9]: 62.5%; viability, T/C [10]: 23.9%; viability, T/C [11]: 0.91%; viability, T/C [12]: 84.8%; viability, T/C [13]: 82.9%; viability, T/C [14]: 81.5%; viability, T/C [15]: 59.9%; viability, T/C [16]: 23.5%; viability, T/C [17]: 0.69%; viability, T/C [18]: 82.6%; viability, T/C [19]: 84.4%; viability, T/C [20]: 72%; viability, T/C [21]: 53.3%; viability, T/C [22]: 23.9%; viability, T/C [23]: 0.75%; viability, T/C [24]: 73.5%; viability, T/C [25]: 82.4%; viability, T/C [26]: 66%; viability, T/C [27]: 23.5%; viability, T/C [28]: 12.2%; viability, T/C [29]: 0.58%; viability, T/C [30]: 29.9%; viability, T/C [31]: 36.2%; viability, T/C [32]: 8.93%; viability, T/C [33]: 3.43%; viability, T/C [34]: 1.25%; viability, T/C [35]: 0.31%
